# Where “and” joins values, the source holds several entries; their conditions need not be identical. Equal entries are not always repeated. Where two headings read alike, the source gives them in different places.
# Assays:
# Assay in all cases: cell-based
# hNav1.3 = hNav1.3 (Homo sapiens, UniProt Q9NY46); conditions: IonWorks Quattro; read-out: IC50 Nav1.3
# hNav1.7 [1] = molecular target: T1, hNav1.7 (Homo sapiens, UniProt Q15858); conditions: IonWorks Quattro; read-out: IC50 Nav1.7
# hNav1.4 [2] = molecular target: T2, hNav1.4 (Homo sapiens, UniProt P35499); conditions: for IC50: IonWorks Quattro, read-out: IC50 Nav1.4; for Nav1.4/Nav1.7: ratio of IonWorks Quattro IC50 values
# hNav1.5 [3] = molecular target: T3, hNav1.5 (Homo sapiens, UniProt Q14524); conditions: IonWorks Quattro; read-out: IC50 Nav1.5
# T3 sequence (Q14524 whole entry): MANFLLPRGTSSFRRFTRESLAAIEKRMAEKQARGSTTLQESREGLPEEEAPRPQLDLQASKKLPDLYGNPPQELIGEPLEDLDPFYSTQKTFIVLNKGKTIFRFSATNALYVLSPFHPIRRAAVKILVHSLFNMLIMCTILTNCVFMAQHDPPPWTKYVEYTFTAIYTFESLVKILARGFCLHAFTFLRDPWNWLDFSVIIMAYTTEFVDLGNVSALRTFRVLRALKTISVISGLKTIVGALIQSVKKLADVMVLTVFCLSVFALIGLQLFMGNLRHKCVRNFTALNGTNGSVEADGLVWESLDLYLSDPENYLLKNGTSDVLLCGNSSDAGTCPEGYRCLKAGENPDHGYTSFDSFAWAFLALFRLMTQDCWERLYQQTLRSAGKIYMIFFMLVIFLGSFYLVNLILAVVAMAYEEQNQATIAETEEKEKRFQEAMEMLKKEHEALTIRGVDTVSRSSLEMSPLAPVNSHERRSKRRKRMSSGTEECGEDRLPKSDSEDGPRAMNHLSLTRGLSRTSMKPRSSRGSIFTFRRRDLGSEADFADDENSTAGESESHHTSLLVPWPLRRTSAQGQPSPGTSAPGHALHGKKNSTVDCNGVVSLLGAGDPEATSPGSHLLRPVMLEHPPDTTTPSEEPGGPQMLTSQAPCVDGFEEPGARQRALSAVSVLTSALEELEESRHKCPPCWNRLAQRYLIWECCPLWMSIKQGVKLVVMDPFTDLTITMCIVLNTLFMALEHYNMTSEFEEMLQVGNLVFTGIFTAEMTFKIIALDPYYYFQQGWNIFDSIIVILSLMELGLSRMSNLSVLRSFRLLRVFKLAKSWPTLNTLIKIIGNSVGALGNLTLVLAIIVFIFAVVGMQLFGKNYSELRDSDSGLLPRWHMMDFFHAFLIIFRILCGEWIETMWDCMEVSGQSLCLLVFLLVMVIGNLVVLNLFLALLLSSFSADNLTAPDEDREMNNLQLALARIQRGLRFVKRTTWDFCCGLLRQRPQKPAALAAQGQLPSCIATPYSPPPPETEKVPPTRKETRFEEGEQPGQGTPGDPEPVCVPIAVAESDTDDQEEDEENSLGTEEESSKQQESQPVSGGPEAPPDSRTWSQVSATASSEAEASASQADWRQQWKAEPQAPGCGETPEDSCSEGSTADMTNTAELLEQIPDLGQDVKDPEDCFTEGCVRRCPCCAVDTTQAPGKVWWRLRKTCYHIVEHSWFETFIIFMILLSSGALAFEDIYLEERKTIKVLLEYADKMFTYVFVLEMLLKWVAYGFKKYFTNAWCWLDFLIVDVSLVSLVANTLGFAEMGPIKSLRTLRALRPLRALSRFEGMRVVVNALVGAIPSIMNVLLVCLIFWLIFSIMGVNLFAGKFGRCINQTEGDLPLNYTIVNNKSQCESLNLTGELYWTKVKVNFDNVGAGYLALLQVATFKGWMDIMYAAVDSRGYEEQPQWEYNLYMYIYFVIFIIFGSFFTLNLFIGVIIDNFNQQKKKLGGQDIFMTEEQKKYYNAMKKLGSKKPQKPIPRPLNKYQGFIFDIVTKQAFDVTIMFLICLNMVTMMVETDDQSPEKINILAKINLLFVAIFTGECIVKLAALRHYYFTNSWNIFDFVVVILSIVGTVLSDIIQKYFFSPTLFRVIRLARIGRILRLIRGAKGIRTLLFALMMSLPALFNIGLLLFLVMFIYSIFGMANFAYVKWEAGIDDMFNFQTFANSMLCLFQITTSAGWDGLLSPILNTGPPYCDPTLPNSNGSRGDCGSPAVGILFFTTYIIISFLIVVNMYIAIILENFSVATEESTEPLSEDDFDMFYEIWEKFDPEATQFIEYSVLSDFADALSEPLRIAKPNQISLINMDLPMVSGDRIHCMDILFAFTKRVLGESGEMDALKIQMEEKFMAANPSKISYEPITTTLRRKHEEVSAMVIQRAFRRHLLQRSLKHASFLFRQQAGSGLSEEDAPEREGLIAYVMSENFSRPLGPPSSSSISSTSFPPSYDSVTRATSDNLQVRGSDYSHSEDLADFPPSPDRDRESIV
# hNav1.7 [4] = molecular target: T1, hNav1.7; format: cell-based; conditions: PatchXpress, tonic block; read-out: PX hNav1.7 Tonic IC50
# hNav1.5 [5] = molecular target: T3, hNav1.5; conditions: for IC50: PatchXpress, tonic block, read-out: PX hNav1.5 Tonic IC50; for Nav1.5/Nav1.7: ratio of PX tonic IC50 values
# hNav1.4 [6] = molecular target: T2, hNav1.4; conditions: for IC50: PatchXpress, tonic block, read-out: PX hNav1.4 Tonic IC50; for Nav1.4/Nav1.7: ratio of PX tonic IC50 values
# Sequence of hNav1.3 (Q9NY46 whole entry): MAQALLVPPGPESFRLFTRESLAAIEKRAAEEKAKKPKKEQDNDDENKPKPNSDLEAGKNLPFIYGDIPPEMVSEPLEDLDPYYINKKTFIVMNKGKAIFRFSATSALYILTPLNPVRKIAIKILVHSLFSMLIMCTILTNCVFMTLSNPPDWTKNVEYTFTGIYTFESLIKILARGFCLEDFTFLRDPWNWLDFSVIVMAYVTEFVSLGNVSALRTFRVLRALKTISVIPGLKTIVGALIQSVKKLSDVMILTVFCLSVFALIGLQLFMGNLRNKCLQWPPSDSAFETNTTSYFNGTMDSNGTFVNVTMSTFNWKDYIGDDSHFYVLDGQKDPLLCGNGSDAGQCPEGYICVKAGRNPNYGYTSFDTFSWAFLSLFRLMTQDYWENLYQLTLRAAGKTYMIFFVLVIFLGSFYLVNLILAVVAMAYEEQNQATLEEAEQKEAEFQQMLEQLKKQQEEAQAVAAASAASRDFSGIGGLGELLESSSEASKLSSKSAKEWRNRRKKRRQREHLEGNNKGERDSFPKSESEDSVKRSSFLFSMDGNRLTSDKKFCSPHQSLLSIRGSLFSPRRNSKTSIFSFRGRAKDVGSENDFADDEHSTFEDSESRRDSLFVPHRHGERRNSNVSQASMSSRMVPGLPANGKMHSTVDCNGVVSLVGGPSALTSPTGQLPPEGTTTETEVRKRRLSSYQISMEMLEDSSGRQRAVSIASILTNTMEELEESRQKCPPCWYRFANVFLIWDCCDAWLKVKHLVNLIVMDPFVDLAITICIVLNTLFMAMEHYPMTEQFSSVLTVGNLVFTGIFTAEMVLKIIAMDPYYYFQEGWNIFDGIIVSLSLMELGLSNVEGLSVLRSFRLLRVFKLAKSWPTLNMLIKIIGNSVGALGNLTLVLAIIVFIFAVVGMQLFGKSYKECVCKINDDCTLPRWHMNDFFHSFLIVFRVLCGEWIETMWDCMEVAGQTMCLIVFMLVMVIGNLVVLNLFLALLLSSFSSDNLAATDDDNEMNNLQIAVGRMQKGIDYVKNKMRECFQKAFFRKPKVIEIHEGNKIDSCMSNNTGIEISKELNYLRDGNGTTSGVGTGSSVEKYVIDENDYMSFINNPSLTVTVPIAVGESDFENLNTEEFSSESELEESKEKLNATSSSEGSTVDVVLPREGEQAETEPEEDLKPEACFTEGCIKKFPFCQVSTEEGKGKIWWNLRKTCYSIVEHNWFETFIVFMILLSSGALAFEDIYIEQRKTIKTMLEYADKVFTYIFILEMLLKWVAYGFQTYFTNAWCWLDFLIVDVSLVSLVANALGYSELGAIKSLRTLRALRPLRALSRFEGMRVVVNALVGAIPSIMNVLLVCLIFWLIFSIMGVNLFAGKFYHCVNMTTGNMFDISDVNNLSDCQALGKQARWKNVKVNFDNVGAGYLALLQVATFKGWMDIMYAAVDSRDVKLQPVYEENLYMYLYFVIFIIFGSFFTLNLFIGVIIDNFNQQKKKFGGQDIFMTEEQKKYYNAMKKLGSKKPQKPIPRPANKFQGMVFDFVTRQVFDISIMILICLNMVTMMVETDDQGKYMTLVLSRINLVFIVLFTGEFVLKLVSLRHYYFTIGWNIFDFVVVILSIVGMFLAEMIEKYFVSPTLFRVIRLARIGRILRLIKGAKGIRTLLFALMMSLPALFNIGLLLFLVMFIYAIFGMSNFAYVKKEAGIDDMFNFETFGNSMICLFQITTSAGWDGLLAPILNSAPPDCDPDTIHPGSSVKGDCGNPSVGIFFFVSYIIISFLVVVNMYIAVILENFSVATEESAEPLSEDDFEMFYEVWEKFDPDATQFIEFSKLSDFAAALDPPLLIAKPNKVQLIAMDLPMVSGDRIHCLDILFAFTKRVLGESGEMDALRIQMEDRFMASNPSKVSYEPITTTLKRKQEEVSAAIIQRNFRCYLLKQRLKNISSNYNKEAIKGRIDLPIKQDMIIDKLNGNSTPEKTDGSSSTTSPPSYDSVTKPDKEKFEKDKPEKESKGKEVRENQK
compound,measurement,setting,value
CCC[C@@H]1NC(=O)[C@H](Cc2c[nH]c3ccccc23)NC(=O)[C@H](CCCCN)NC(=O)[C@H](CCC(N)=O)NC(=O)[C@@H](NC(=O)[C@@H](N)Cc2ccc(O)cc2)CSSC[C@@H]2NC(=O)[C@@H]3CSSC[C@@H](C(=O)N[C@@H](CCCNC(=N)N)C(=O)N[C@@H](CCCCN)C(=O)N[C@H](C(=O)N[C@H](C(N)=O)[C@@H](C)CC)[C@@H](C)CC)NC(=O)[C@H](Cc4c[nH]c5ccccc45)NC(=O)[C@H](CC(C)C)NC(=O)[C@H](CCCCN)NC(=O)[C@H](CSSC[C@H](NC(=O)[C@H]([C@@H](C)O)NC(=O)[C@H](Cc4c[nH]c5ccccc45)NC1=O)C(=O)N[C@@H](CC(=O)O)C(=O)N[C@@H](CO)C(=O)N[C@@H](CCCCN)C(=O)N[C@@H](CCCNC(=N)N)C(=O)N[C@@H](C)C(=O)N3)NC(=O)[C@H](CCC(=O)O)NC(=O)[C@H](CC(C)C)NC(=O)CNC(=O)[C@H](CCC(=O)O)NC2=O [compound 111],IC50,hNav1.3,> 5 µM
same,IC50,hNav1.7 [1],0.69 µM
same,IC50,hNav1.4 [2],> 5 µM
same,Nav1.4/Nav1.7,hNav1.4 [2],7
same,IC50,hNav1.5 [3],9.2 µM
CC[C@H](C)[C@H](NC(=O)[C@H](CCCCN)NC(=O)[C@H](CCCNC(=N)N)NC(=O)[C@@H]1CSSC[C@@H]2NC(=O)[C@H](C)NC(=O)[C@H](CCCNC(=N)N)NC(=O)[C@H](CCCCN)NC(=O)[C@H](CO)NC(=O)[C@H](CC(=O)O)NC(=O)[C@@H]3CSSC[C@H](NC(=O)[C@H](CCC(=O)O)NC(=O)[C@H](CC(C)C)NC(=O)CNC(=O)[C@H](CCC(=O)O)NC(=O)[C@H](CSSC[C@H](NC(=O)[C@@H](N)Cc4ccc(O)cc4)C(=O)N[C@@H](CCC(N)=O)C(=O)N[C@@H](CCCCN)C(=O)N[C@@H](Cc4c[nH]c5ccccc45)C(=O)N[C@@H](CCSC)C(=O)N[C@@H](Cc4c[nH]c5ccccc45)C(=O)N[C@@H]([C@@H](C)O)C(=O)N3)NC2=O)C(=O)N[C@@H](CCCCN)C(=O)N[C@@H](CC(C)C)C(=O)N[C@@H](Cc2c[nH]c3ccccc23)C(=O)N1)C(=O)N[C@H](C(=O)N[C@@H](Cc1c[nH]c2ccccc12)C(N)=O)[C@@H](C)CC [compound 113],IC50,hNav1.3,> 5 µM
same,IC50,hNav1.7 [1],0.17 µM
same,IC50,hNav1.4 [2],> 5 µM
same,Nav1.4/Nav1.7,hNav1.4 [2],30
same,IC50,hNav1.5 [3],11.1 µM
CC[C@H](C)[C@H](NC(=O)[C@@H](NC(=O)[C@H](CCCCN)NC(=O)[C@H](CCCNC(=N)N)NC(=O)[C@@H]1CSSC[C@@H]2NC(=O)[C@H](C)NC(=O)[C@H](CCCNC(=N)N)NC(=O)[C@H](CCCCN)NC(=O)[C@H](CO)NC(=O)[C@H](CC(=O)O)NC(=O)[C@@H]3CSSC[C@H](NC(=O)[C@H](Cc4ccc(C(=O)O)cc4)NC(=O)[C@H](CC(C)C)NC(=O)CNC(=O)[C@H](CCC(=O)O)NC(=O)[C@H](CSSC[C@H](NC(=O)[C@@H](N)Cc4ccc(O)cc4)C(=O)N[C@@H](CCC(N)=O)C(=O)N[C@@H](CCCCN)C(=O)N[C@@H](Cc4c[nH]c5ccccc45)C(=O)N[C@@H](CCSC)C(=O)N[C@@H](Cc4c[nH]c5ccccc45)C(=O)N[C@@H]([C@@H](C)O)C(=O)N3)NC2=O)C(=O)N[C@@H](CCCCN)C(=O)N[C@@H](CC(C)C)C(=O)N[C@@H](Cc2c[nH]c3ccccc23)C(=O)N1)[C@@H](C)CC)C(N)=O [compound 114],IC50,hNav1.3,> 5 µM
same,IC50,hNav1.7 [1],0.21 µM
same,IC50,hNav1.4 [2],> 5 µM
same,Nav1.4/Nav1.7,hNav1.4 [2],24
same,IC50,hNav1.5 [3],14.2 µM
CC[C@H](C)[C@H](NC(=O)[C@@H](NC(=O)[C@H](CCCCN)NC(=O)[C@H](CCCNC(=N)N)NC(=O)[C@@H]1CSSC[C@@H]2NC(=O)[C@H](C)NC(=O)[C@H](CCCNC(=N)N)NC(=O)[C@H](CCCCN)NC(=O)[C@H](CO)NC(=O)[C@H](CC(=O)O)NC(=O)[C@@H]3CSSC[C@H](NC(=O)[C@H]([C@@H](C)CC)NC(=O)[C@H](CC(C)C)NC(=O)CNC(=O)[C@H](CCC(=O)O)NC(=O)[C@H](CSSC[C@H](NC(=O)[C@@H](N)Cc4ccc(O)cc4)C(=O)N[C@@H](CCC(N)=O)C(=O)N[C@@H](CCCCN)C(=O)N[C@@H](Cc4c[nH]c5ccccc45)C(=O)N[C@@H](CCSC)C(=O)N[C@@H](Cc4c[nH]c5ccccc45)C(=O)N[C@@H]([C@@H](C)O)C(=O)N3)NC2=O)C(=O)N[C@@H](CCCCN)C(=O)N[C@@H](CC(C)C)C(=O)N[C@@H](Cc2c[nH]c3ccccc23)C(=O)N1)[C@@H](C)CC)C(N)=O [compound 118],IC50,hNav1.3,2.2 µM
same,IC50,hNav1.7 [1],0.09 µM
same,IC50,hNav1.4 [2],1.3 µM
same,Nav1.4/Nav1.7,hNav1.4 [2],15
same,IC50,hNav1.5 [3],8.6 µM
CC[C@H](C)[C@H](NC(=O)[C@@H](NC(=O)[C@H](CCCCN)NC(=O)[C@H](CCCNC(=N)N)NC(=O)[C@@H]1CSSC[C@@H]2NC(=O)[C@H](C)NC(=O)[C@H](CCCNC(=N)N)NC(=O)[C@H](CCCCN)NC(=O)[C@H](CO)NC(=O)[C@H](CC(=O)O)NC(=O)[C@@H]3CSSC[C@H](NC(=O)[C@H](CC(C)C)NC(=O)[C@H](CC(C)C)NC(=O)CNC(=O)[C@H](CCC(=O)O)NC(=O)[C@H](CSSC[C@H](NC(=O)[C@@H](N)Cc4ccc(O)cc4)C(=O)N[C@@H](CCC(N)=O)C(=O)N[C@@H](CCCCN)C(=O)N[C@@H](Cc4c[nH]c5ccccc45)C(=O)N[C@@H](CCSC)C(=O)N[C@@H](Cc4c[nH]c5ccccc45)C(=O)N[C@@H]([C@@H](C)O)C(=O)N3)NC2=O)C(=O)N[C@@H](CCCCN)C(=O)N[C@@H](CC(C)C)C(=O)N[C@@H](Cc2c[nH]c3ccccc23)C(=O)N1)[C@@H](C)CC)C(N)=O [compound 119],IC50,hNav1.3,2.51 µM
same,IC50,hNav1.7 [1],0.07 µM
same,IC50,hNav1.4 [2],1 µM
same,Nav1.4/Nav1.7,hNav1.4 [2],14
same,IC50,hNav1.5 [3],8.3 µM
CC[C@H](C)[C@H](NC(=O)[C@@H](NC(=O)[C@H](CCCCN)NC(=O)[C@H](CCCNC(=N)N)NC(=O)[C@@H]1CSSC[C@@H]2NC(=O)[C@H](C)NC(=O)[C@H](CCCNC(=N)N)NC(=O)[C@H](CCCCN)NC(=O)[C@H](CO)NC(=O)[C@H](CC(=O)O)NC(=O)[C@@H]3CSSC[C@H](NC(=O)[C@H](C(C)C)NC(=O)[C@H](CC(C)C)NC(=O)CNC(=O)[C@H](CCC(=O)O)NC(=O)[C@H](CSSC[C@H](NC(=O)[C@@H](N)Cc4ccc(O)cc4)C(=O)N[C@@H](CCC(N)=O)C(=O)N[C@@H](CCCCN)C(=O)N[C@@H](Cc4c[nH]c5ccccc45)C(=O)N[C@@H](CCSC)C(=O)N[C@@H](Cc4c[nH]c5ccccc45)C(=O)N[C@@H]([C@@H](C)O)C(=O)N3)NC2=O)C(=O)N[C@@H](CCCCN)C(=O)N[C@@H](CC(C)C)C(=O)N[C@@H](Cc2c[nH]c3ccccc23)C(=O)N1)[C@@H](C)CC)C(N)=O [compound 120],IC50,hNav1.3,3.37 µM
same,IC50,hNav1.7 [1],0.1 µM
same,IC50,hNav1.4 [2],3 µM
same,Nav1.4/Nav1.7,hNav1.4 [2],31
same,IC50,hNav1.5 [3],7.1 µM
CC[C@H](C)[C@H](NC(=O)CNC(=O)[C@H](CCCCN)NC(=O)[C@H](CCCNC(=N)N)NC(=O)[C@@H]1CSSC[C@@H]2NC(=O)[C@H](C)NC(=O)[C@H](CCCNC(=N)N)NC(=O)[C@H](CCCCN)NC(=O)[C@H](CO)NC(=O)[C@H](CC(=O)O)NC(=O)[C@@H]3CSSC[C@H](NC(=O)[C@H](CCC(=O)O)NC(=O)[C@H](CC(C)C)NC(=O)CNC(=O)[C@H](CCC(=O)O)NC(=O)[C@H](CSSC[C@H](NC(=O)[C@@H](N)Cc4ccc(O)cc4)C(=O)N[C@@H](CCC(N)=O)C(=O)N[C@@H](CCCCN)C(=O)N[C@@H](Cc4c[nH]c5ccccc45)C(=O)N[C@@H](CCSC)C(=O)N[C@@H](Cc4c[nH]c5ccccc45)C(=O)N[C@@H]([C@@H](C)O)C(=O)N3)NC2=O)C(=O)N[C@@H](CCCCN)C(=O)N[C@@H](CC(C)C)C(=O)N[C@@H](Cc2c[nH]c3ccccc23)C(=O)N1)C(N)=O [compound 134],IC50,hNav1.3,> 5 µM
same,IC50,hNav1.7 [1],0.3 µM and 0.37 µM
same,IC50,hNav1.4 [2],> 5 µM
same,Nav1.4/Nav1.7,hNav1.4 [2],17 and 13
C#CC[C@H](N)C(=O)NCCOCCOCCOCCOCCOCCOCCOCCOCCOCCOCCOCCOCCC(=O)NCCCC[C@@H]1NC(=O)[C@@H]2CSSC[C@H](NC(=O)[C@@H](N)Cc3ccc(O)cc3)C(=O)N[C@@H](CCC(N)=O)C(=O)N[C@@H](CCCCN)C(=O)N[C@@H](Cc3c[nH]c4ccccc34)C(=O)N[C@@H](CCCC)C(=O)N[C@@H](Cc3c[nH]c4ccccc34)C(=O)N[C@@H]([C@@H](C)O)C(=O)N[C@H]3CSSC[C@H](NC(=O)[C@H](CCC(=O)O)NC(=O)[C@H](CC(C)C)NC(=O)CNC1=O)C(=O)N[C@@H](CCCCN)C(=O)N[C@@H](CC(C)C)C(=O)N[C@@H](Cc1c[nH]c4ccccc14)C(=O)N[C@H](C(=O)N[C@@H](CCCNC(=N)N)C(=O)N[C@@H](CCCCN)C(=O)N[C@H](C(=O)N[C@@H](Cc1c[nH]c4ccccc14)C(N)=O)[C@@H](C)CC)CSSC[C@H](NC(=O)[C@H](C)NC(=O)[C@H](CCCNC(=N)N)NC(=O)[C@H](CCCCN)NC(=O)[C@H](CO)NC(=O)[C@H](CC(=O)O)NC3=O)C(=O)N2 [compound 292],IC50,hNav1.7 [4],0.9 µM
same,IC50,hNav1.7 [1],0.082 µM
same,IC50,hNav1.5 [5],3.12 µM
same,Nav1.5/Nav1.7,hNav1.5 [5],3
same,IC50,hNav1.4 [6],1.63 µM
same,Nav1.4/Nav1.7,hNav1.4 [6],2
C#CC[C@H](N)C(=O)NCCOCCOCCOCCOCCC(=O)NCCCC[C@@H]1NC(=O)[C@@H]2CSSC[C@H](NC(=O)[C@@H](N)Cc3ccc(O)cc3)C(=O)N[C@@H](CCC(N)=O)C(=O)N[C@@H](CCCCN)C(=O)N[C@@H](Cc3c[nH]c4ccccc34)C(=O)N[C@@H](CCCC)C(=O)N[C@@H](Cc3c[nH]c4ccccc34)C(=O)N[C@@H]([C@@H](C)O)C(=O)N[C@H]3CSSC[C@H](NC(=O)[C@H](CCC(=O)O)NC(=O)[C@H](CC(C)C)NC(=O)CNC1=O)C(=O)N[C@@H](CCCCN)C(=O)N[C@@H](CC(C)C)C(=O)N[C@@H](Cc1c[nH]c4ccccc14)C(=O)N[C@H](C(=O)N[C@@H](CCCNC(=N)N)C(=O)N[C@@H](CCCCN)C(=O)N[C@H](C(=O)N[C@@H](Cc1c[nH]c4ccccc14)C(N)=O)[C@@H](C)CC)CSSC[C@H](NC(=O)[C@H](C)NC(=O)[C@H](CCCNC(=N)N)NC(=O)[C@H](CCCCN)NC(=O)[C@H](CO)NC(=O)[C@H](CC(=O)O)NC3=O)C(=O)N2 [compound 293],IC50,hNav1.7 [4],0.57 µM
same,IC50,hNav1.7 [1],0.041 µM
same,IC50,hNav1.5 [5],0.58 µM
same,Nav1.5/Nav1.7,hNav1.5 [5],1
same,IC50,hNav1.4 [6],0.453 µM
same,Nav1.4/Nav1.7,hNav1.4 [6],1
